Source: ChEMBL document CHEMBL4376815, “The Development Process for Discovery and Clinical Advancement of Modern Antimalarials” (J Med Chem, 2019)
Values after ≈ are worked out from the molar mass of the structure shown.

Columns and labels:
[1] = biological target: T1, Dihydroorotate dehydrogenase (Plasmodium falciparum, UniProt Q54A96); assay: Inhibition of Plasmodium falciparum DHODH expressed in Escherichia coli using L-dihydroorotate as substrate
T1 sequence (Q54A96 whole entry): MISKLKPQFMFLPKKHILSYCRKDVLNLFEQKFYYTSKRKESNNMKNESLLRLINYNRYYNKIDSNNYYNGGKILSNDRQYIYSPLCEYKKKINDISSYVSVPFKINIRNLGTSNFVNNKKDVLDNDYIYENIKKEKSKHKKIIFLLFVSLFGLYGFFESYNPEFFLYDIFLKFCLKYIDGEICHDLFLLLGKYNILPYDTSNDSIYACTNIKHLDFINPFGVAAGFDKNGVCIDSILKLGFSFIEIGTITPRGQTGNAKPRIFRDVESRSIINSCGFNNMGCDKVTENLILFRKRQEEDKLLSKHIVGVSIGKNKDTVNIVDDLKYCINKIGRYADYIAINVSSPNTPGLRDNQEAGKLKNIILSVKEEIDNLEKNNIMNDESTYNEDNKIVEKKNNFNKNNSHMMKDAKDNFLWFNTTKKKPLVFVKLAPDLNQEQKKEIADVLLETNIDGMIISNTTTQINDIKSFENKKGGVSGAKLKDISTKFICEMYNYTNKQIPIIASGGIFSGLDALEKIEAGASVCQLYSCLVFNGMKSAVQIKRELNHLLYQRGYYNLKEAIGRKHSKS

[2] = biological target: Dihydroorotate dehydrogenase (quinone), mitochondrial (Homo sapiens, UniProt Q02127); assay: Inhibition of human DHODH expressed in Escherichia coli using L-dihydroorotate as substrate
Plasmodium falciparum [3] = assay: Antimalarial activity against Plasmodium falciparum; type: functional, organism-based
[4] = Inhibition of Plasmodium falciparum PI4K by pull down assay; set-up: species or system Plasmodium vivax
[5] = Half life in monkey at 1 mg/kg, iv by LC-MS analysis; type: ADME, organism-based, Macaca mulatta; details: rhesus monkey, in vivo
Plasmodium falciparum [6] = assay: Antimalarial activity against mefloquine/chloroquine-resistant Plasmodium falciparum asexual blood stage forms assessed as parasite clearance time at 100 times EC50; type: functional
[7] = Inhibition of Plasmodium vivax DHODH expressed in Escherichia coli using L-dihydroorotate as substrate
Plasmodium falciparum [8] = assay: Antimalarial activity against Plasmodium falciparum asexual blood stage form infected in human assessed as reduction in parasite growth at 400 mg, po measured on day 14 by blood smear based assay relative to control; type: functional; set-up: scale not given: the % may be the effect or the level left
Plasmodium falciparum [9] = assay: Antimalarial activity against Plasmodium falciparum asexual blood stage form infected in human assessed as parasite clearance half-life; type: functional, organism-based
[10] = Tmax in human at 25 to 1200 mg, po measured up to 480 hrs by HPLC-MS/MS analysis; type: ADME, organism-based; details: in vivo
[11] = Plasma clearance in monkey at 1 mg/kg, iv by LC-MS analysis; type: ADME, organism-based, Macaca mulatta; details: rhesus monkey
Plasmodium falciparum [12] = assay: Antimalarial activity against mefloquine/chloroquine-resistant Plasmodium falciparum asexual blood stage forms; type: functional, organism-based
Plasmodium vivax [13] = assay: Antimalarial activity against Plasmodium vivax infected in human erythrocytes assessed as reduction in [3H]-hypoxanthine incorporation incubated for 40 hrs followed by addition of [3H]-hypoxanthine and measured after 4 hrs by liquid scintillation counting method; type: functional, organism-based
Plasmodium falciparum [14] = assay: Antimalarial activity against Plasmodium falciparum NF54 liver stage form schizonts infected in human hepatocytes assessed as EEF diameter; type: functional, organism-based
[15] = Half life in human at 25 to 1200 mg, po measured up to 480 hrs by HPLC-MS/MS analysis; type: ADME, organism-based; details: in vivo
Plasmodium falciparum [16] = assay: Antimalarial activity against Plasmodium falciparum asexual blood stage form infected in human assessed as reduction in parasite growth at 250 mg, po measured on day 14 by blood smear based assay relative to control; type: functional; set-up: scale not given: the % may be the effect or the level left
[17] = biological target: Voltage-gated inwardly rectifying potassium channel KCNH2 (Homo sapiens, UniProt Q12809); assay: Inhibition of human ERG by patch clamp method
Plasmodium falciparum [18] = assay: Antimalarial activity against schizont stage of Plasmodium falciparum clinical isolate; type: functional, organism-based
[19] = AUC (0 to infinity) in human at 25 to 1200 mg, po measured up to 480 hrs by HPLC-MS/MS analysis; type: ADME, organism-based; details: in vivo
Plasmodium falciparum [20] = assay: Antimalarial activity against Plasmodium falciparum 3D7 infected in bid administered po dosed NOD-scid IL-2Rgamma null mouse assessed as reduction in parasite growth after 3 day by flow cytometric analysis; type: functional
Plasmodium cynomolgi = assay: Antimalarial activity against Plasmodium cynomolgi liver stage form infected in human hepatocytes; type: functional, organism-based
[21] = Cmax in human at 25 to 1200 mg, po measured up to 480 hrs by HPLC-MS/MS analysis; type: ADME, organism-based; details: in vivo
Plasmodium falciparum [22] = assay: Antimalarial activity against Plasmodium falciparum 3D7 infected in qd administered po dosed NOD-scid IL-2Rgamma null mouse assessed as reduction in parasite growth after 3 day by flow cytometric analysis; type: functional
Plasmodium falciparum [23] = assay: Antimalarial activity against Plasmodium falciparum asexual blood stage form infected in human assessed as reduction in parasite growth after 10 to 22 days; type: functional
Plasmodium falciparum [24] = assay: Antimalarial activity against mefloquine/chloroquine-resistant Plasmodium falciparum asexual blood stage forms assessed as parasite clearance time at 10 times EC50; type: functional
Plasmodium falciparum [25] = assay: Antimalarial activity against Plasmodium falciparum asexual blood stage form infected in human assessed as reduction in parasite growth at 400 mg, po after 72 hrs by blood smear based assay relative to control; type: functional; set-up: scale not given: the % may be the effect or the level left
[26] = Half life in Beagle dog at 1 mg/kg, iv by LC-MS analysis; type: ADME, organism-based, Canis lupus familiaris; details: in vivo
Plasmodium vivax [27] = assay: Antimalarial activity against schizont stage of Plasmodium vivax clinical isolate; type: functional, organism-based
[28] = AUC in monkey at 1 mg/kg, iv by LC-MS analysis; type: ADME, organism-based, Macaca mulatta; details: rhesus monkey, in vivo
Plasmodium falciparum [29] = assay: Antimalarial activity against Plasmodium falciparum asexual blood stage form infected in human assessed as reduction in parasite growth at 400 mg, po measured on day 14 by qPCR analysis relative to control; type: functional; set-up: scale not given: the % may be the effect or the level left
[30] = Plasma clearance in Beagle dog at 1 mg/kg, iv by LC-MS analysis; type: ADME, organism-based, Canis lupus familiaris
Plasmodium falciparum [31] = assay: Antimalarial activity against Plasmodium falciparum asexual blood stage form infected in human assessed as parasite clearance half-life at 150 mg, po after 8 days; type: functional, organism-based
[32] = AUC in Beagle dog at 1 mg/kg, iv by LC-MS analysis; type: ADME, organism-based, Canis lupus familiaris; details: in vivo
Cytochrome P450 3A4 = Cytochrome P450 3A4 (Homo sapiens, UniProt P08684); assay: Inhibition of CYP3A4 (unknown origin); type: ADME
[33] = Cardiotoxicity in human assessed as effect on QT parameters at 1280 mg; type: toxicity
[34] = Plasmodium falciparum, 3D7, po, 72 h

Chain of Cytochrome P450 3A4 (P08684 whole entry): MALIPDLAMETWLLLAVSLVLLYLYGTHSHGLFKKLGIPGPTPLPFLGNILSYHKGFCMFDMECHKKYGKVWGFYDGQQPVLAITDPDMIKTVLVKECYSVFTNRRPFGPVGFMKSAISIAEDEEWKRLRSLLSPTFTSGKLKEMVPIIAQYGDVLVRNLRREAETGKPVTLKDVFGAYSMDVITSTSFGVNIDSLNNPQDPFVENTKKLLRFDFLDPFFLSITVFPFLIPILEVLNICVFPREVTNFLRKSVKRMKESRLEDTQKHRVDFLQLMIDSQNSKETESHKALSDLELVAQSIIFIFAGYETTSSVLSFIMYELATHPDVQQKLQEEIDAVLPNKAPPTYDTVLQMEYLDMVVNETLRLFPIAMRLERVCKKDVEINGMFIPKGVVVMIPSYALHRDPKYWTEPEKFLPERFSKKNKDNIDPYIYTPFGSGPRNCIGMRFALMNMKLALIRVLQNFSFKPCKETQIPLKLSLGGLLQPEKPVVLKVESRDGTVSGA
Chain of Dihydroorotate dehydrogenase (quinone), mitochondrial (Q02127 whole entry): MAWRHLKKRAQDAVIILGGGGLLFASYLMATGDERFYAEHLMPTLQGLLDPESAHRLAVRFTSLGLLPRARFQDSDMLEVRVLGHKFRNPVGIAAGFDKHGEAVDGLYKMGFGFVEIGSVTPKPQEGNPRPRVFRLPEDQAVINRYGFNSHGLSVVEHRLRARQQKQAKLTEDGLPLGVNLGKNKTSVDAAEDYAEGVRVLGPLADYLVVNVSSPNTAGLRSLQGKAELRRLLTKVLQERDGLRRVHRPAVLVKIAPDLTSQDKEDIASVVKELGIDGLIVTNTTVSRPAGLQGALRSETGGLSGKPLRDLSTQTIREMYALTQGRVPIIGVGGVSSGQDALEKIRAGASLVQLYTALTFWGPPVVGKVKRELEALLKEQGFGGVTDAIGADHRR
Chain of Voltage-gated inwardly rectifying potassium channel KCNH2 (Q12809 whole entry): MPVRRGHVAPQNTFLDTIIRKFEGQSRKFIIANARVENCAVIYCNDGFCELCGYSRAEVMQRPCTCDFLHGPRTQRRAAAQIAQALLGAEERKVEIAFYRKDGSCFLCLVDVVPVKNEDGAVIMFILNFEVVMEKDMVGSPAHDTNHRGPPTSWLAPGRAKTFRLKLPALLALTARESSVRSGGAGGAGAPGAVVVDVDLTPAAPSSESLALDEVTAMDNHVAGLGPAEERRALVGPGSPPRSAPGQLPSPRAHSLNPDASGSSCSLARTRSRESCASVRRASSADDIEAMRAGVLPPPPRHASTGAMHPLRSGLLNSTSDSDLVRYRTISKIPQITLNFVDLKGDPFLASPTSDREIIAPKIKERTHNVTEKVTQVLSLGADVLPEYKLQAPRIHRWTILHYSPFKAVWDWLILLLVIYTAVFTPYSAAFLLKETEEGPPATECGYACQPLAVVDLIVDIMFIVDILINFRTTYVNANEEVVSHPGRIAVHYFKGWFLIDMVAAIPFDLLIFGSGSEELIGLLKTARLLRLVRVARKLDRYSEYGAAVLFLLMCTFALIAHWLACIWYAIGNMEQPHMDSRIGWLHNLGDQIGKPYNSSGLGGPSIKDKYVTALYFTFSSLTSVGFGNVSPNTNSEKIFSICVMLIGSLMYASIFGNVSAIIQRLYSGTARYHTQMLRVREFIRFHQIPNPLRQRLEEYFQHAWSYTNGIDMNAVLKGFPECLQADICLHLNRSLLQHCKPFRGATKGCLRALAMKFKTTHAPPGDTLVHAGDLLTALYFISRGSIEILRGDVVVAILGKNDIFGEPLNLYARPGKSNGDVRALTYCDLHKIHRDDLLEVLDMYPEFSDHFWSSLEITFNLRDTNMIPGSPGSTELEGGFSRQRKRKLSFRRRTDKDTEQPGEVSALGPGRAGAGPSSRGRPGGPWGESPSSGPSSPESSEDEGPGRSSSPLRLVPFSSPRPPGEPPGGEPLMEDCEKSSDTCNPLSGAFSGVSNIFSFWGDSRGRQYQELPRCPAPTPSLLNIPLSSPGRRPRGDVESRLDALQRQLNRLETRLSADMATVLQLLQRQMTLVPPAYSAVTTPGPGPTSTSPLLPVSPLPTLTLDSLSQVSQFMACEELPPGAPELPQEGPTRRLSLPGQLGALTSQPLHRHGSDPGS

`Cc1cc(Nc2ccc(S(F)(F)(F)(F)F)c(F)c2)n2nc(C(C)(F)F)nc2n1` gave an IC50 [1] of 10 nM, an IC50 [2] of 3700 nM and an EC50 (Plasmodium falciparum [3]) of 2 nM.
Molecule `Nc1ncc(-c2ccc(C(=O)N3CCC(N)C3)cc2)nc1-c1ccc(C(F)(F)F)cc1` (configuration not stated) has an EC50 [4] of 1.6 nM.
With `Cc1cc(Nc2ccc(S(F)(F)(F)(F)F)cc2)n2nc(C(C)(F)F)nc2n1` [DSM-265] the half-life [5] was 10 to 45 h, the Time (Plasmodium falciparum [6]) was 82 h and the EC50 [7] was 20 nM. For the same molecule, the Activity (Plasmodium falciparum [8]) was 100%, the T1/2 (Plasmodium falciparum [9]) was 5 h and the Tmax [10] was 1.5 to 4 h. For the same molecule, the clearance [11] was 0.367 to 0.9 mL/min/kg, the EC50 (Plasmodium falciparum [12]) was 7 to 16 nM and the EC50 (Plasmodium vivax [13]) was 529 nM. It also gave an EC50 (Plasmodium falciparum [14]) of 0.0057 µg/mL (≈ 0.0137 µM), a half-life [15] of 86 to 118 h and an Activity (Plasmodium falciparum [16]) of 88%. For the same molecule, the IC50 [17] was 1590 to 6980 nM, the EC50 (Plasmodium falciparum [18]) was 918 nM and the AUC(0-inf) [19] was 107 to 4720 µg·h/mL. The MIC (Plasmodium falciparum [20]) was 6.4 mg/kg, the ED90 (Plasmodium falciparum [20]; [34]) was 1.5 mg/kg and the EC50 (Plasmodium cynomolgi) was 0.13 µg/mL (≈ 0.313 µM). The Cmax [21] was 1310 to 34800 ng/mL, the MIC (Plasmodium falciparum [22]) was 13 mg/kg and the ED90 (Plasmodium falciparum [22]; [34]) was 3 mg/kg. It also gave an MIC (Plasmodium falciparum [23]) of 1.04 µg/mL (≈ 2.5 µM), a Time (Plasmodium falciparum [24]) of 85 h and an Activity (Plasmodium falciparum [25]) of 100%. The half-life [26] was 10 to 45 h, the EC50 (Plasmodium vivax [27]) was 190 nM and the AUC [28] was 16.7 to 46.9 µg·h/mL. The Activity (Plasmodium falciparum [29]) was 100%, the clearance [30] was 0.367 to 0.9 mL/min/kg and the T1/2 (Plasmodium falciparum [31]) was 9.4 h. For the same molecule, the AUC [32] was 16.7 to 46.9 µg·h/mL.
In the case of `Clc1ccc2c(N3CCN(CCCN4CCN(c5ccnc6cc(Cl)ccc56)CC4)CC3)ccnc2c1` [PIPERAQUINE], the Ki (Cytochrome P450 3A4) is reported as 90 nM and the Activity [33] is reported as 79.2%.
